{"source": "patent US12599596B2", "about": "“Anti-tumor pharmaceutical composition based on immune checkpoint blockade and use thereof” (Shanghai Hui Tian Jin Ze Biotech Co., Ltd., priority 2023, dated 2026)", "key": {"[1]": {"system": "RKO colorectal cancer cells", "experiment": "EdU proliferation of tumor cells treated with CBD", "assay_type": "cell-based", "conditions": "CBD 5, 10, 20 μM, 24 h", "procedure": "(§1) Different types of tumor cells (RKO colorectal cancer cells, H1975 lung cancer cells, and A549 lung cancer cells) in the logarithmic growth phase were respectively inoculated into a 96-well plate at an inoculum density of 5×10^3 per well, and then, the tumor cells were placed into an incubator at 37° C. and 5% CO2 for incubation for 24 h; a CBD mother solution (10 mM) was respectively diluted with culture medium to 5 μM, 10 μM, or 20 μM, and the culture medium in the 96-well plate was aspirated off, 100 μL of culture medium containing different concentrations of CBD was added to each well, a control well (0 μM CBD) was set, and the cells were continuously incubated for 24 h. After the culture was completed, the quantity of proliferating tumor cells was detected with an EdU kit (Beyotime, C0085S). Finally, a high-content imaging analysis system was used for photographing and the data were counted."}, "[2]": {"system": "H1975 lung cancer cells", "experiment": "EdU proliferation of tumor cells treated with CBD", "assay_type": "cell-based", "conditions": "CBD 5, 10, 20 μM, 24 h", "procedure": "as §1"}, "[3]": {"system": "A549 lung cancer cells", "experiment": "EdU proliferation of tumor cells treated with CBD", "assay_type": "cell-based", "conditions": "CBD 5, 10, 20 μM, 24 h", "procedure": "as §1"}, "[4]": {"system": "MC38 colorectal cancer cells", "experiment": "MC38 subcutaneous tumor model in C57BL/6 mice, Embodiment 2", "assay_type": "in vivo", "conditions": "for Tumor volume: CBD 100 mg/kg, PAR 10 mg/kg, vitamin E 50 mg/kg, thymosin 2 mg/kg", "procedure": "• 1. MC38 colorectal cancer cells were inoculated into 6-week-old female C57BL/6 mice (1×10^6 cells/mouse) to establish a subcutaneous tumor model. After the tumor volume reached 50 mm^3, the mice were grouped and administered according to the following pharmaceutical combinations: (1) control group (no administration), (2) anti-PD-1 ([…]/time) group, (3) anti-CTLA4 ([…]/time) group, (4) CBD (100 mg/kg) group, (5) CBD (100 mg/kg)+anti-CTLA4 ([…]/time) group, (6) PAR (10 mg/kg) group, (7) PAR (10 mg/kg)+anti-CTLA4 ([…]) group, (8) CBD (100 mg/kg)+PAR (10 mg/kg) group, (9) vitamin E(a-tocopherol) (50 mg/kg)+thymosin (2 mg/kg) group, (10) CBD (100 mg/kg)+vitamin E(α-tocopherol) (50 mg/kg)+thymosin (2 mg/kg) group, (11) PAR (10 mg/kg)+vitamin E(α-tocopherol) (50 mg/kg)+thymosin (2 mg/kg), (12) PAR (10 mg/kg)+CBD (100 mg/kg)+vitamin E(α-tocopherol) (50 mg/kg)+thymosin (2 mg/kg) group, (13) CBD (100 mg/kg)+vitamin E(α-tocopherol) (50 mg/kg)+thymosin (2 mg/kg)+anti-CTLA4 ([…]/time) group, (14) PAR (10 mg/kg)+vitamin E(α-tocopherol) (50 mg/kg)+thymosin (2 mg/kg)+anti-CTLA4 ([…]) group, and (15) CBD (100 mg/kg)+PAR (10 mg/kg)+vitamin E(α-tocopherol) (50 mg/kg)+thymosin (2 mg/kg)+anti-CTLA4 ([…]/time) group. The tumor weight and volume, and body weight of the mice were monitored once every 2 days. The tumor volume was calculated as follows: tumor volume (mm^3)=0.5×(length)x(width)^2. The mice were sacrificed 14 days after drug administration, and the tumors were dissected.\nThe dissolving mode of the pharmaceutical composition was as follows: the pharmaceutical composition was dissolved in 10% DMSO+corn oil, the mice were gavaged with the pharmaceutical composition at 100 pl/mouse, and the mice in the control group were injected with the same volume of the solvent. • 2. MC38 colorectal cancer cells were inoculated into 6-week-old female nude mice (1×10^6 cells/mouse) to establish a subcutaneous tumor model. After the tumor volume reached 50 mm^3, the mice were grouped and administered according to the following pharmaceutical combinations: (1) control group, (2) CBD (100 mg/kg)+vitamin E(α-tocopherol) (50 mg/kg)+thymosin (2 mg/kg) group, (3) PAR (10 mg/kg)+vitamin E(α-tocopherol) (50 mg/kg)+thymosin (2 mg/kg) group, and (4) PAR (10 mg/kg)+CBD (100 mg/kg)+vitamin E(α-tocopherol) (50 mg/kg)+thymosin (2 mg/kg) group. The tumor weight and volume, and the body weight of the mice were monitored once every 2 days. The tumor volume was calculated as follows: tumor volume (mm^3)=0.5×(length)x(width)^2. The mice were sacrificed 14 days after drug administration, and the tumors were dissected. (II) Experimental Results 1."}, "[5]": {"system": "PD-L1 on RKO colon cancer cell membrane", "experiment": "PD-L1 on cell membrane by flow cytometry", "assay_type": "cell-based", "conditions": "concentration-dependent 5, 10, 20 μM, 24 h", "procedure": "(§2) • (1) Different types of tumor cells (RKO, HCT116 and HT29 colon cancer cells, and A549, H1975 and H460 lung cancer cells) in the logarithmic growth phase were respectively inoculated on a 6-well plate at an inoculum density of 2.5×10^5 cells/well with 2 mL/well and then placed in a cell incubator overnight incubation. The culture mixture was removed, CBD at different concentrations (0 μM, 5 μM, 10 μM, and 20 μM) was added for treatment for 24 h, the supernatant was removed, and the cells were washed with PBS 2 times, digested with pancreatin, centrifuged at 300×g and 4° C. for 5 min, and collected. The cells were washed with precooled PBS 2 times, centrifuged at 300×g and 4° C. for 5 min, and collected. The cells were washed 2 times with precooled PBS, 100 μL of PBS was added to resuspend the cells, an anti-PD-L1-Alexa Fluor 647 antibody was added, the cells were incubated at room temperature for 30 min and centrifuged at 300×g and 4° C. for 5 min, 300 μL of PBS was added to resuspend the cells in a flow tube, and an Alexa Fluor 647 signal was detected from the sample using a flow cytometer (excitation/emission wavelength of 647 nm/666 nm). • (2) The colorectal cancer cells (RKO) in the logarithmic growth phase were inoculated into a 6-well plate at a density of 2.5×10^5 cells/well, with a 2 mL volume of the suspension in each well. The plate was placed into a cell incubator for incubation overnight, the culture mixture was removed, 20 μM CBD was added for 12 h, the supernatant was removed, PBS was used for washing 2 times, paraformaldehyde was added for fixing for 15 min, 5% BSA was added for fixing for 1 h, PBST was used for washing 2 times, a PD-L1 antibody was added overnight incubation, a red fluorescent antibody was added for incubation at room temperature for 1 h, DAPI was added for staining for 10 min, and finally, a laser scanning confocal microscope was used for photographing and analysis. 4. Research of CBD on Enhancing In Vitro Killing of Tumor Cells by T Cells"}, "[6]": {"system": "PD-L1 on H460 lung cancer cell membrane", "experiment": "PD-L1 on cell membrane by flow cytometry", "assay_type": "cell-based", "conditions": "concentration-dependent 5, 10, 20 μM, 24 h", "procedure": "as §2"}}}
{"smiles": "C=C(C)[C@@H]1CCC(C)=C[C@H]1c1c(O)cc(CCCCC)cc1O", "note": "[CBD, cannabidiol]", "values": [{"measurement": "toxicity to tumor cells (proliferation, EdU fluorescence intensity)", "setting": "[1]", "value": "not significantly toxic"}, {"measurement": "toxicity to tumor cells (proliferation, EdU fluorescence intensity)", "setting": "[2]", "value": "not significantly toxic"}, {"measurement": "toxicity to tumor cells (proliferation, EdU fluorescence intensity)", "setting": "[3]", "value": "not significantly toxic"}, {"measurement": "Tumor volume", "setting": "[4]; Day 0", "value": 0, "unit": "mm^3"}, {"measurement": "Tumor volume", "setting": "[4]; Day 2", "value": 54.99, "unit": "mm^3"}, {"measurement": "Tumor volume", "setting": "[4]; Day 4", "value": 70.96, "unit": "mm^3"}, {"measurement": "Tumor volume", "setting": "[4]; Day 6", "value": 87.63, "unit": "mm^3"}, {"measurement": "Tumor volume", "setting": "[4]; Day 8", "value": 178.79, "unit": "mm^3"}, {"measurement": "Tumor volume", "setting": "[4]; Day 10", "value": 279.84, "unit": "mm^3"}, {"measurement": "Tumor volume", "setting": "[4]; Day 12", "value": 399.70, "unit": "mm^3"}, {"measurement": "Tumor volume", "setting": "[4]; Day 14", "value": 493.09, "unit": "mm^3"}, {"measurement": "Tumor volume", "setting": "[4]; Day 16", "value": 600.09, "unit": "mm^3"}, {"measurement": "therapeutic / tumor inhibition effect in words", "setting": "[4]; normal mice, Embodiment 2, comparison between groups", "value": "equivalent therapeutic effects"}, {"measurement": "expression of PD-L1 on the cell membrane (flow assay)", "setting": "[5]", "value": "decreased the expression of PD-L1"}, {"measurement": "expression of PD-L1 on the cell membrane (flow assay)", "setting": "[6]", "value": "decreased the expression of PD-L1"}]}
